# From US10206394B2, “Herbicidal compounds” (Syngenta Participations AG, priority 2014, dated 2019)
# Where two headings read alike, the source gives them in different places.
# Columns and labels:
# Assay in all cases: Glasshouse assay for herbicidal activity (pre- and post-emergence), percentage phytotoxicity
# Format in all cases: in vivo
# [1] = tested on: Alopecurus myosuroides (ALOMY); settings: Alopecurus myosuroides, Rate 250 g/ha, 100%=total damage, 0%=no damage
# Experimental: (§1) Test—Glasshouse Assay for Herbicidal Activity
# (§2) Seeds of a variety of monocotyledonous and dicotyledonous test plants are sown in standard soil in pots. The plants are cultivated for one day (for pre-emergence (PRE)) or for about 12 days (for post-emergence (POST)) under controlled conditions in a glasshouse (warm climate species at 24/18° C., cool climate species at 20/16° C., both at day/night; 16 hours light; 65% humidity).
# (§3) The test plants are then grown on, in a glasshouse (greenhouse) under controlled conditions (warm climate species at 24/18° C., cool climate species at 20/16° C., both at day/night; 16 hours light; 65% humidity) and are watered twice daily. 15 days after application of the test herbicide (15 DAA) (for post-emergence), and 20 days after application of the test herbicide (20 DAA) (for pre-emergence), the test plants are evaluated visually, and an assessed percentage phytotoxicity score is given for each herbicidal application on each plant species (with 100%=total damage to plant; 0%=no damage to plant).
# (§4) The plant species tested are as follows: Alopecurus myosuroides (ALOMY), Avena fatua (AVEFA), Lolium perenne (LOLPE), Echinochloa crus-galli (ECHCG).
# [2] = tested on: Echinochloa crus-galli (ECHCG); settings: Echinochloa crus-galli, Rate 250 g/ha, 100%=total damage, 0%=no damage
# Experimental: as §1, §2, §3, §4
# Avena fatua (AVEFA) = settings: Avena fatua, Rate 250 g/ha, 100%=total damage, 0%=no damage
# Experimental: as §1, §2, §3, §4
# Lolium perenne (LOLPE) = settings: Lolium perenne, Rate 250 g/ha, 100%=total damage, 0%=no damage
# Experimental: as §1, §2, §3, §4
# [3] = post-emergence, 360 h, post-emergence, assessed visually 15 DAA, read-out: Post-emergence herbicidal activity (percentage phytotoxicity) ALOMY POST
# [4] = pre-emergence, 480 h, pre-emergence, assessed visually 20 DAA, read-out: Pre-emergence herbicidal activity (percentage phytotoxicity) ALOMY PRE
# [5] = post-emergence, 360 h, post-emergence, assessed visually 15 DAA, read-out: Post-emergence herbicidal activity (percentage phytotoxicity) ECHCG POST
# [6] = pre-emergence, 480 h, pre-emergence, assessed visually 20 DAA, read-out: Pre-emergence herbicidal activity (percentage phytotoxicity) ECHCG PRE
# [7] = post-emergence, 360 h, post-emergence, assessed visually 15 DAA, read-out: Post-emergence herbicidal activity (percentage phytotoxicity) AVEFA POST
# [8] = pre-emergence, 480 h, pre-emergence, assessed visually 20 DAA, read-out: Pre-emergence herbicidal activity (percentage phytotoxicity) AVEFA PRE
# [9] = post-emergence, 360 h, post-emergence, assessed visually 15 DAA, read-out: Post-emergence herbicidal activity (percentage phytotoxicity) LOLPE POST
# [10] = pre-emergence, 480 h, pre-emergence, assessed visually 20 DAA, read-out: Pre-emergence herbicidal activity (percentage phytotoxicity) LOLPE PRE
Structure (SMILES),"pest or weed control at 250 g/ha [1, 3]","pest or weed control at 250 g/ha [1, 4]","pest or weed control at 250 g/ha [2, 5]","pest or weed control at 250 g/ha [2, 6]",pest or weed control at 250 g/ha (Avena fatua (AVEFA); [7]),pest or weed control at 250 g/ha (Avena fatua (AVEFA); [8]),pest or weed control at 250 g/ha (Lolium perenne (LOLPE); [9]),pest or weed control at 250 g/ha (Lolium perenne (LOLPE); [10])
"Cc1cc(-c2ccc(F)cc2)cc(C)c1C1C(=O)CC(CC(=O)NC(C)C)C1=O (centres unmarked) [Compound A34, 2-[3-[4-(4-fluorophenyl)-2,6-dimethyl-phenyl]-2,4-dioxo-cyclopentyl]-N-isopropyl-acetamide]",100%,100%,100%,100%,100%,100%,100%,100%
Cc1cc(-c2ccc(Cl)cc2)cc(C)c1C1C(=O)CC(CC(=O)NC(C)C)C1=O (centres unmarked) [Compound A35],90%,90%,100%,100%,100%,100%,100%,100%
Cc1cc(-c2ccc(F)cc2)cc(C)c1C1C(=O)CC(CC(=O)NC(C)(C)C)C1=O (centres unmarked) [Compound A36],90%,100%,100%,100%,100%,100%,90%,100%
Cc1cc(-c2ccc(C#N)cc2)cc(C)c1C1C(=O)CC(CC(=O)NC(C)C)C1=O (centres unmarked) [Compound A37],80%,90%,90%,100%,100%,90%,80%,100%
Cc1cc(-c2ccc(C#N)cc2F)cc(C)c1C1C(=O)CC(CC(=O)NC(C)C)C1=O (centres unmarked) [Compound A38],80%,80%,90%,100%,100%,90%,80%,90%
Cc1cc(-c2ncc(Cl)cn2)cc(C)c1C1C(=O)CC(CC(=O)NC(C)(C)C)C1=O (centres unmarked) [Compound A40],100%,100%,100%,100%,100%,90%,100%,100%
Cc1cc(-c2ccc(Cl)cn2)cc(C)c1C1C(=O)CC(CC(=O)NC(C)(C)C)C1=O (centres unmarked) [Compound A41],100%,100%,100%,100%,100%,70%,100%,100%
C#Cc1cc(C)c(C2C(=O)CC(CC(=O)NC(C)C)C2=O)c(C)c1 (centres unmarked) [Compound A42],100%,100%,80%,100%,100%,100%,90%,100%
CCCCNC(=O)CC1CC(=O)C(c2c(C)cc(-c3ncc(Cl)cc3F)cc2C)C1=O (centres unmarked) [Compound A44],100%,100%,100%,100%,100%,100%,100%,100%
Cc1cc(-c2ncc(Cl)cc2F)cc(C)c1C1C(=O)CC(CC(=O)NC2CC2)C1=O (centres unmarked) [Compound A45],100%,100%,100%,100%,100%,100%,100%,100%
